Assay results: patent US8455518B2, “Method of treating skin with microRNA modulators” (Avon Products, Inc., priority 2010, dated 2013)

Legend:
Format in all cases: cell-based
miR-29b = experiment: Inhibition of miR-29b by specific compounds in human dermal fibroblasts, qRT-PCR; settings: 0.0005% compound, 48 hours; for inhibition of miR-29b relative to vehicle treated cells (in words): p<0.05; for miR-29b (%): serum-free, relative to vehicle treated cells
Procedure: (§1) The expression of miR-29a and miR29b in young versus old skin fibroblasts was examined by qRT-PCR.
(§2) Human dermal fibroblasts were grown in the absence of serum overnight, followed by treatment with 0.0005% of test compounds in the absence of serum for 48 hours. Cells were analyzed for expression levels of miR-29a and miR-29b by qRT-PCR as described in Examples 1 and 2. […] All values are statistically significant at p<0.05.

miR-29a = experiment: Inhibition of miR-29a by specific compounds in human dermal fibroblasts, qRT-PCR; settings: 0.0005% compound, 48 hours; for inhibition of miR-29a relative to vehicle treated cells (in words): p<0.05; for miR-29a (%): serum-free, relative to vehicle treated cells
Procedure: as §1, §2

collagen = experiment: Collagen protein levels by ELISA in compound-treated human dermal fibroblasts; settings: 0.0005% compound, 48 hours; for collagen protein levels as measured by ELISA (in words): p<0.05; for Collagen (%): serum-free, collagen protein by ELISA

Compound	inhibition of miR-29b relative to vehicle treated cells (in words) (miR-29b)	miR-29b (%) (miR-29b)	inhibition of miR-29a relative to vehicle treated cells (in words) (miR-29a)	miR-29a (%) (miR-29a)	collagen protein levels as measured by ELISA (in words) (collagen)	Collagen (%) (collagen)
CC(C)CN(Cc1ccc(OS(C)(=O)=O)cc1)S(=O)(=O)c1ccccc1 [Compound 1, N-(2-methylpropyl)-N-[[4-[(methylsulfonyl)oxy]phenyl]methyl]-benzenesulfonamide]	significant inhibition	−85.00%	significant inhibition	−61.57%	increased collagen protein levels	102%
CCOCCCNC(=O)c1cc(NC(=O)/C=C/c2ccccc2)ccc1N1CCC(Cc2ccccc2)CC1 [Compound 2, 2-(4-benzylpiperidin-1-yl)-N-(3-ethoxypropyl)-5-[(2E)-3-phenylprop-2-enamido]-benzamide]	significant inhibition	−61.53%	significant inhibition	−33.67%	increased collagen protein levels	30%
